Experimental data from ChEMBL document CHEMBL1121780, “Synthesis and antiarrhythmic activity of new benzofuran derivatives” (J Med Chem, 1981).
The source made the active and inactive calls. The rule behind the calls is not given here.

How the values were obtained:
[1] = species: Canis familiaris; assay: Activity against ouabain-induced ventricular arrhythmia was measured as percent of sinus rhythm recovery; Inactive; format: functional, organism-based; conditions: Canis lupus familiaris; Cardiac ventricle
[2] = Toxicity estimated in mouse as LD50 by intravenous administration; format: organism-based; conditions: in vivo
[3] = species: Canis familiaris; assay: Duration for the sinus rhythm recovery was measured; format: functional, Canis lupus familiaris
[4] = system: Canis familiaris; assay: Activity against ouabain-induced ventricular arrhythmia was measured as percent of sinus rhythm recovery at dose of 2 mg/kg iv; format: functional, Canis lupus familiaris, Cardiac ventricle
[5] = Toxicity was estimated in mouse as LD50 by intravenous administration; LD50=1000 (40%); format: organism-based; conditions: in vivo
[6] = system: Canis familiaris; assay: Activity against ouabain-induced ventricular arrhythmia was measured as percent of sinus rhythm recovery at dose of 4 mg/kg iv; format: functional, Canis lupus familiaris, Cardiac ventricle
[7] = system: Canis familiaris; assay: Activity against ouabain-induced ventricular arrhythmia was measured as percent of sinus rhythm recovery at dose of 1 mg/kg iv; format: functional, Canis lupus familiaris, Cardiac ventricle
[8] = species: Canis familiaris; assay: Activity against ouabain-induced ventricular arrhythmia was measured as percent of sinus rhythm recovery; Estimated as too toxic to be tested; format: functional, organism-based; conditions: Canis lupus familiaris; Cardiac ventricle
[9] = system: Canis familiaris; assay: Activity against harris coronary ligation induced ventricular arrhythmia was measured as percent of initial sinus complexes after dose 4 mg/kg iv; Inactive; format: functional, organism-based; set-up: dose 4 mg/kg; conditions: Canis lupus familiaris; Cardiac ventricle; at 4 mg/kg
[10] = species: Canis familiaris; assay: Duration for the antiarrhythmic activity was measured; format: functional, Canis lupus familiaris, Heart
[11] = system: Canis familiaris; assay: Activity against harris coronary ligation induced ventricular arrhythmia was measured as percent of initial sinus complexes after dose 2 mg/kg iv; format: functional, Canis lupus familiaris, Cardiac ventricle
[12] = system: Canis familiaris; assay: Activity against harris coronary ligation induced ventricular arrhythmia was measured as percent of final sinus complexes after dose 2 mg/kg iv; format: functional, Canis lupus familiaris, Cardiac ventricle
[13] = system: Canis familiaris; assay: Activity against harris coronary ligation induced ventricular arrhythmia was measured as percent of initial sinus complexes after dose 2 mg/kg, iv; Inactive; format: functional, organism-based; set-up: dose 2 mg/kg; conditions: Canis lupus familiaris; Cardiac ventricle; at 2 mg/kg
[14] = system: Canis familiaris; assay: Activity against harris coronary ligation induced ventricular arrhythmia was measured as percent of initial sinus complexes after dose 1 mg/kg iv; Inactive; format: organism-based, Canis lupus familiaris, Cardiac ventricle; set-up: dose 1 mg/kg; conditions: dog, in vivo
[15] = system: Canis familiaris; assay: Activity against harris coronary ligation induced ventricular arrhythmia was measured as percent of initial sinus complexes after dose 12.5 mg/kg, po; format: functional, Canis lupus familiaris, Cardiac ventricle
[16] = system: Canis familiaris; assay: Activity against harris coronary ligation induced ventricular arrhythmia was measured as percent of final sinus complexes after dose 2 mg/kg, iv; format: functional, Canis lupus familiaris, Cardiac ventricle
[17] = system: Canis familiaris; assay: Activity against harris coronary ligation induced ventricular arrhythmia was measured as percent of final sinus complexes after dose 12.5 mg/kg, po; format: functional, Canis lupus familiaris, Cardiac ventricle
[18] = system: Canis familiaris; assay: Activity against harris coronary ligation induced ventricular arrhythmia was measured as percent of initial sinus complexes after dose 5 mg/kg, iv; format: functional, Canis lupus familiaris, Cardiac ventricle
[19] = system: Canis familiaris; assay: Activity against harris coronary ligation induced ventricular arrhythmia was measured as percent of final sinus complexes after dose 5 mg/kg, iv; format: functional, Canis lupus familiaris, Cardiac ventricle

| SMILES | SRR [1] | LD50 [2] [mg/kg] | Duration [3] [min] | other results |
| --- | --- | --- | --- | --- |
| CNC(=O)Nc1c(OCCN2CCCCC2)c(OC)c2occc2c1OC(C)C | inactive | 11 |  |  |
| CCNCCOc1c(NC(C)=O)c(OC)c2ccoc2c1OC | inactive | 68 |  |  |
| CNC(=O)Nc1c(OCCN2CCC2)c(OC)c2occc2c1OC |  |  | 10 | SRR [4]: 100%; LD50 [5]: 1000 mg/kg |
| CCN(CC)CCCOc1c(NC(=O)NC)c(OC)c2ccoc2c1OC |  | 76 | 15 | SRR [4]: 100% |
| CNC(=O)Nc1c(OCCNC(C)C)c(OC)c2occc2c1OC |  | 49 | <30 | SRR [6]: 100% |
| CNCCOc1c(NC(=O)NC)c(OC)c2ccoc2c1OC | inactive | 67 |  |  |
| COc1c(N)c(OCCN2CCCCC2)c(OC)c2occc12 | inactive | 21 |  |  |
| COc1c(NC(C)=O)c(OCCN2CCCC2)c(OC)c2occc12 |  | 80 | <30 | SRR [6]: 33% |
| COC(=O)Nc1c(OCCN2CCCCC2)c(OC)c2occc2c1OC | inactive | 15 |  |  |
| COc1c(NC(C)=O)c(OCCNC2CCCCC2)c(OC)c2occc12 |  | 11.5 | <30 | SRR [7]: 50% |
| CCOc1c(NC(=O)NC)c(OCCN2CCCCC2)c(OC)c2occc12 |  | 10 |  | SRR [8]: inactive |
| COc1c(NC(=O)NC2CCCCC2)c(OCCN2CCCCC2)c(OC)c2occc12 | inactive | 42 |  |  |
| CNCCOc1c(NC(C)=O)c(OC)c2ccoc2c1OC | inactive | 96 |  |  |
| COc1c(NC(=O)c2ccccc2)c(OCCN2CCCCC2)c(OC)c2occc12 |  | 2.5 |  | SRR [8]: Estimated as too toxic to be tested |
| COc1c(NC(C)=O)c(OCCN2CCCCCC2)c(OC)c2occc12 | inactive | 33 |  |  |
| CCN(CC)CCOc1c(NC(=O)NC)c(OC)c2ccoc2c1OC |  | 74 | >120 | ISC [9]: inactive; SRR [4]: 100% |
| COc1c(NC(=O)OC2CCCCC2)c(OCCN2CCCCC2)c(OC)c2occc12 | inactive | 15 |  |  |
| COc1c(NC(C)=O)c(OCCN2CCCCCCC2)c(OC)c2occc12 |  | 21 | >50 | Duration [10]: <30 min; ISC [11]: 5%; SRR [7]: 100%; FSC [12]: 17% |
| CCCCNC(=O)Nc1c(OCCN2CCCCC2)c(OC)c2occc2c1OC | inactive | 22 |  |  |
| CNC(=O)Nc1c(OCCCN(C)C)c(OC)c2occc2c1OC | inactive | 44 |  |  |
| COc1c(NC(C)=O)c(OCCN(C)C)c(OC)c2occc12 | inactive | 138 |  |  |
| CNC(=O)Nc1c(OC)ccc(OC)c1OCCN1CCCCC1 | inactive | 135 |  |  |
| COc1c(NC(=O)Nc2ccccc2)c(OCCN2CCCCC2)c(OC)c2occc12 | inactive | 9 |  |  |
| CNC(=O)Nc1c(OCCCN2CCCCC2)c(OC)c2occc2c1OC |  | 42.5 | >100 | ISC [13]: inactive; SRR [4]: 100% |
| CCCNC(=O)Nc1c(OCCN2CCCCC2)c(OC)c2occc2c1OC | inactive | 18.5 |  |  |
| CNC(=O)Nc1c(OCCNC2CCCCC2)c(OC)c2occc2c1OC |  | 9.5 | 120 | ISC [14]: Not Active; SRR [7]: 100% |

| SMILES | SRR [1] | LD50 [2] [mg/kg] | Duration [3] [min] | other results |
| --- | --- | --- | --- | --- |
| CNC(=O)Nc1c(OCCCCN2CCCCC2)c(OC)c2occc2c1OC |  | 68 | <30 | SRR [6]: 100% |
| CNC(=O)Nc1c(OCC(C)N2CCCCC2)c(OC)c2occc2c1OC (stereo not drawn) |  | 36 | 60 | SRR [4]: 100% |
| COc1c(NC(=O)C(C)C)c(OCCN2CCCCC2)c(OC)c2occc12 | inactive | 78 |  |  |
| CNC(=O)Nc1c(OC)c(OC)c2occc2c1OCCN1CCCCC1 | inactive | 200 |  |  |
| CNC(=O)Nc1c(OCCN2CCOCC2)c(OC)c2occc2c1OC | inactive | 100 |  |  |
| COc1c(NC(N)=O)c(OCCN2CCCCC2)c(OC)c2occc12 | inactive | 40 |  |  |
| CNC(=O)Nc1c(OCCN2CCCCCC2)c(OC)c2occc2c1OC |  | 31 | 95 | ISC [11]: 3%; SRR [4]: 100%; ISC [15]: 5%; FSC [16]: 78%; FSC [17]: 90% |
| CCOC(=O)Nc1c(OCCN2CCCCC2)c(OC)c2occc2c1OC | inactive | 13 |  |  |
| CNC(=O)Nc1c(OCCCN2CCCC2)c(OC)c2occc2c1OC |  | 32 | >60 | Duration [10]: 20 min; ISC [18]: 0%; FSC [19]: 9%; SRR [6]: 100% |
| COc1c(NC(=O)N(C)C)c(OCCN2CCCCC2)c(OC)c2occc12 |  | 25 | 60 | Duration [10]: 40 min; ISC [11]: 22%; FSC [12]: 52%; SRR [6]: 50% |
| COc1c(NC(=O)NC(C)C)c(OCCN2CCCCC2)c(OC)c2occc12 | inactive | 25 |  |  |
| CNC(=O)Nc1c(OCCN2CCCCCCC2)c(OC)c2occc2c1OC |  | 14 | 30 | ISC [13]: inactive; SRR [4]: 100% |
| CCNC(=O)Nc1c(OCCN2CCCCC2)c(OC)c2occc2c1OC |  | 28 | 120 | Duration [10]: <30 min; ISC [11]: 25%; SRR [4]: 100%; FSC [12]: 90% |
| CNS(=O)(=O)Nc1c(OCCN2CCCCC2)c(OC)c2occc2c1OC | inactive | 39 |  |  |
| COc1c(NC=O)c(OCCN2CCCCC2)c(OC)c2occc12 |  | 46 | 10 | SRR [6]: 100% |
| CNC(=O)Nc1cc2ccoc2cc1OCCN1CCCCC1 | inactive | 67 |  |  |
| COc1c(NC(=O)C2CCCCC2)c(OCCN2CCCCC2)c(OC)c2occc12 |  | 7 |  | SRR [8]: Estimated as too toxic to be tested |
| CN/C(S)=N/c1c(OCCN2CCCCC2)c(OC)c2occc2c1OC | inactive | 17 |  |  |
| CNC(=O)Nc1c(OC(C)CN2CCCCC2)c(OC)c2occc2c1OC (stereo not drawn) |  | 23 | 15 | SRR [7]: 100% |
| CNC(=O)N(C)c1c(OCCN2CCCCC2)c(OC)c2occc2c1OC |  | 66 | <10 | SRR [4]: 100% |
| COc1c(NC(C)=O)c(OCCN2CCOCC2)c(OC)c2occc12 | inactive | 200 |  |  |
| COc1c(NC(=O)NC(C)(C)C)c(OCCN2CCCCC2)c(OC)c2occc12 | inactive | 11.5 |  |  |
| CCN(CC)CCOc1c(NC(C)=O)c(OC)c2ccoc2c1OC | inactive | 85 |  |  |
| COc1c(NC(C)=O)c(OCCCN2CCCCC2)c(OC)c2occc12 | inactive | 40.5 |  |  |
| COc1c(NC(=O)C(F)(F)F)c(OCCN2CCCCC2)c(OC)c2occc12 | inactive | 22 |  |  |
| CNC(=O)Nc1c(OCCCCN2CCCC2)c(OC)c2occc2c1OC | inactive | 36 |  |  |
